Assay results from PubChem BioAssay (NCI).
Several values for one entry are separate records, joined by “and”; a condition that tells them apart may be missing. Equal values may be shown once.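 Cultured in 96-well plates, cells were exposed to test compound for 48 hours across five concentrations. The concentration for 50% growth inhibition is given as GI50. The concentration for full growth arrest is given as TGI.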

Assays:
Assay in all cases: NCI tumour cell line growth inhibition, 48 h
[1] = test system: HOP-18 NSCLC
[2] = test system: M19-MEL melanoma
[3] = test system: OVCAR-4 ovarian
[4] = test system: SR leukemia
[5] = test system: DMS 273 small cell lung
[6] = test system: CCRF-CEM leukemia
[7] = test system: K-562 leukemia
[8] = test system: MALME-3M melanoma
[9] = test system: SNB-78 CNS
[10] = test system: RXF 393 renal
[11] = test system: NCI-H460 lung
[12] = test system: ACHN renal

Structure (SMILES)	TGI [1] [µM]	TGI [2]	TGI [3]	TGI [4] [µM]	TGI [5]	TGI [6]	TGI [7] [µM]	TGI [8] [µM]	TGI [9]	TGI [10] [µM]	TGI [11] [µM]	TGI [12]	GI50 [4]	GI50 [3] [µM]	GI50 [6] [µM]	GI50 [7] [µM]	GI50 [8] [µM]	GI50 [10] [µM]	GI50 [11] [µM]	GI50 [12] [µM]
CC1(C)CC(=O)C(C(=O)Nc2cccs2)=C(O)C1	> 100	> 100 µM	> 100 µM	> 100	82 µM	95.3 µM	> 100	> 100	> 100 µM	> 100	> 100	> 100 µM								
C/C=C(/CCC1NCCc2c1[nH]c1ccccc21)[Si](C)(C)C (stereo not given)	24.2	> 100 µM and 10.1 µM	> 100 µM and 11.9 µM		> 100 µM and 13.5 µM	> 100 µM and 11.5 µM	> 100		> 100 µM and 27 µM			> 100 µM and 21.5 µM								
CC(C)(C)C1CC[C@H]2c3c([nH]c4ccccc34)[C@H]3C(=O)N(c4ccc(F)cc4)C(=O)[C@H]3[C@H]2C1 (stereo not given in full)	34.4	34.7 µM	23.7 µM		33.3 µM	35.5 µM	42.5	36.8	36.8 µM	43.9	26.4	27.2 µM								
C[C@H]1CCC/C=C/[C@@H]2C[C@H](OC(=O)CN(C)C)C[C@H]2[C@H](O)/C=C/C(=O)O1			9.64 µM	3.49		> 100 µM	> 100	0.15		0.155	4.05	11.4 µM								
CCN(CC)/[N+]([O-])=N/OS(=O)(=O)N(C)C			> 100 µM	> 100		> 100 µM	> 100	> 100		> 100	> 100	> 100 µM								
NC(CCC(=O)O)C(=O)NC(Cc1ccc(N(CCCl)CCCl)cc1)C(=O)O (stereo not given)			> 100 µM	> 100		> 100 µM	> 100	> 100		> 100	> 100	> 100 µM	> 100 µM and 28.5 µM							
COC(=O)C(C)NP(=O)(OCc1cccc(Cn2cnc3c(N)ncnc32)c1)Oc1ccccc1 (stereo not given)			> 100 µM	> 100		> 100 µM	> 100	> 100		> 100	> 100	> 100 µM	55.4 µM	> 100	50.5	> 100	68.2	27.8	> 100	> 100
CC1(c2ccc(Cl)cc2)C=C(c2ccc(Cl)cc2)C(C#N)=C(C(C#N)C#N)N1 (stereo not given)			32.6 µM	73.8		> 100 µM	> 100	29.1		38.2	52.9	30.5 µM								
Nc1nccc(NCC2(CO)CC(CCc3ccccc3)C2)n1 (stereo not given)			47.2 µM	52.6		55.5 µM	45.5	29.1		36	28.4	32.6 µM								
CC(=O)n1c2ccc(Br)cc2c2nc3ccccc3nc21			> 100 µM	> 100		> 100 µM	> 100	> 100		> 100	> 100	> 100 µM								
Cc1cc2nnn(C3CCCCO3)c2cc1C (stereo not given)			> 100 µM	> 100		> 100 µM	> 100	> 100		> 100	> 100	> 100 µM								
NS(=O)(=O)c1c(O)c2ccccc2oc1=O			> 100 µM	> 100		> 100 µM	> 100	> 100		> 100	> 100	> 100 µM								
CC1C(OS(=O)(=O)c2ccc3[nH]c(=S)sc3c2)CC2C3(C)CCC2(C(C)C(=O)O)C(O)C13 (stereo not given)			94.2 µM	64.8		65.5 µM	> 100	83.8		61.2	> 100	31.8 µM								
CC[C@@H]1CC[C@@H]2[C@H](CC[C@]3(C)[C@@H](O[N+](=O)[O-])CC[C@@H]23)[C@H]1C(C)=O			> 100 µM	> 100		> 100 µM	> 100	65.3		> 100	76	> 100 µM								
COc1cc(Nc2nc3cc(C)ccc3nc2-c2ccccc2)cc(OC)c1OC	73.1	71 µM	> 100 µM	69.9	49.6 µM	> 100 µM	> 100	56.8			40	> 100 µM								
COc1cc(S(=O)(=O)Nc2nc(-c3ccc(N=Cc4ccccc4O)cc3)cs2)ccc1Cl			> 100 µM	> 100		> 100 µM	> 100	> 100		> 100	> 100	> 100 µM								
C(=NC12CC3CC(CC(C3)C1)C2)C1CCCCC1			> 100 µM	> 100		> 100 µM	> 100	> 100		> 100	> 100	> 100 µM								
N/C(CCSCCSCC/C(N)=N\O)=N\O			> 100 µM	> 100		> 100 µM	> 100	> 100		> 100	> 100	> 100 µM								
CCCCCC(=O)OC[n+]1cccc(-c2c(COC(=O)NC(C)C)c(COC(=O)NC(C)C)c3n2CCC3)c1			> 100 µM	> 73.8		> 61 µM	> 100	> 100		> 67.1	> 100	> 100 µM								
COC(=O)c1sc(=S)sc1SCc1cccc(CSc2sc(=S)sc2C(=O)OC)c1			> 100 µM	> 100		> 100 µM	> 100	> 100		34.3	> 100	> 100 µM								
CCN(CC)c1ccc(Cl)c2c1C(O)(C(C)C)C2(C)C (stereo not given)	27.3	29.4 µM	33.3 µM		29.5 µM	39.9 µM	43.9	27.4	69.4 µM	29.7	33.9	31.3 µM								
O=c1[nH]c2ccccc2c2oc3ccccc3c12			> 100 µM	> 100		> 100 µM	> 100	> 100		> 100	> 100	> 100 µM								
CN(CC(=O)Nc1ccccc1C(=O)O)c1ccccc1			> 100 µM	> 100		> 100 µM	> 100	> 100		> 100	> 100	> 100 µM								
CC(=O)Nc1ccc2c(c1)C(=O)c1ccccc1-2		> 100 µM		> 100	> 100 µM	> 100 µM	> 100	> 100	> 100 µM	> 100	> 100	> 100 µM								
CCOC(OCC)(OCC)C(Br)CC (stereo not given)	> 100	> 100 µM	> 100 µM	49	34.5 µM	> 100 µM	> 100	> 100	> 100 µM	> 100	> 100	> 100 µM								
O=C(OC1OC2COC(=O)c3cc(O)c(O)c(O)c3-c3c(cc(O)c(O)c3O)C(=O)OC3C2OC(=O)[C@@]24CC(=O)[C@@](O)(OC25C(=O)O[C@H]2[C@@H](O)CO[C@@]25O)C2(O)Oc5c(O)c(O)cc(c5C24)C(=O)OC13)c1cc(O)c(O)c(O)c1 (stereo not given in full)			> 100 µM	94.6		87.8 µM	> 100	> 100		> 100	> 100	> 100 µM								
